Results from patent US20240216464A1, “IL1RA DERIVED PEPTIDES FOR TREATMENT OF DIABETIC NEPHROPATHY” (SERODUS APS, priority 2021, published 2024).
“Also recorded” adds a separate entry of the source. Ends that are not written are not given here.

Columns and labels:
[1] = test system: Renin AAV Uni-nephrectomized db/db (Renin AAV UNx) mice; test: Renin AAV uni-nephrectomized db/db mouse model of diabetic nephropathy, 77 days treatment; format: in vivo
Method: 56 female mice (BKS.Cg-Dock7m+/+ Lepradb/db BLKS, 5 weeks of age) were transferred to the Gubra Research animal unit. The animals were group housed until uni-nephrectomies, then single housed. Throughout the habituation and study period the animals were in a light-, temperature- and humidity-controlled room with free access to food and water. All animal experiments were conducted in accordance with Gubra bioethical guidelines, which are fully compliant to internationally accepted principles for the care and use of laboratory animals.
Animals were terminated on day 77; blood was taken for later analysis, body weight was recorded, and spot urine was collected.
SER140 was provided by Phlogo ApS, Copenhagen, Denmark (10 mg/ml miliQ water diluted to the different dose formulations). SER140 is a dendrimer composed of four monomeric peptides each with the sequence SGRKSSKMQA (SEQ ID NO:1), and coupled to a lysine backbone. Vehicle was miliQ:PBS 1:5.
After one week of acclimatization the mice received an IV injection of Renin adenosin-associated virus (AAV). […]
All blood samples were taken from the mice tail in heparinized tubes, plasma was separated and stored at minus 80 C until analysis. Non-fasting BG (blood glucose) was measured using BIOSEN c-line glucose meter (EKF-diagnostics, Germany), blood for HbA1c analysis was immediately suspended in Hemolyzing Reagent and stored until analysis using autoanalyzer Cobas C-111 with commercial kit (Roche Diagnostics, Germany), plasma urea using commercial kits (Roche Diagnostics).
Urine samples were stored at minus 80 C until analysis. Urine for measurement of albumin and creatinine were centrifuged at 2000 g for 2 min prior to analysis Urine albumin was measure using a commercial ELISA kit (Bethyl Laboratories, Inc.), according to the manufacturer's instructions, and urine creatinine was measured using a commercial kit (Roche Diagnostics) on the Cobas c 501 autoanalyzer, according to the manufacturer's instructions. Urinary KIM-1 was measured using a commercial ELISA kit (R&D Systems), according to the manufacturer's instructions.

[2] = target: T1, IL-1R1 (Homo sapiens, UniProt P14778); settings: cited from earlier work
T1 sequence (P14778 18-569): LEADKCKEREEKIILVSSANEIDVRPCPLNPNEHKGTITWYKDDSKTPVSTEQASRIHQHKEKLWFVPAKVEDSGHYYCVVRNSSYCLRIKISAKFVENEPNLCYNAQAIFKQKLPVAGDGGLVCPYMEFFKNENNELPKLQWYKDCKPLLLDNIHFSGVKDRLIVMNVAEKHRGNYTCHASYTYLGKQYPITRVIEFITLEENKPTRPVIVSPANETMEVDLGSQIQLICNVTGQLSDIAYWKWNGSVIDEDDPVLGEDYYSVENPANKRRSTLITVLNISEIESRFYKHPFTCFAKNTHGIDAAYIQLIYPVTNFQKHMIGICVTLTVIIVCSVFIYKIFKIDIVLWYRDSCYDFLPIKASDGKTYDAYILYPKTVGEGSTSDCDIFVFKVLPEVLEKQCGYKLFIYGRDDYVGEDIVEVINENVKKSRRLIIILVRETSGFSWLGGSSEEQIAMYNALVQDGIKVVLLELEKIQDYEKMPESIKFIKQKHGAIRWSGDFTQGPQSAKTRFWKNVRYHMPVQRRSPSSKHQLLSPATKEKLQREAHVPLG

[3] = test system: macrophages; settings: downstream of IL-1 receptor activation; cited from earlier work

| Substance | urinary albumin corrected for creatinine (ACR) ([1]; spot urine, day 77, 3, 10 and 20 mg/kg SER140 subcutaneously once daily vs vehicle, FIG. 1 (medians)) | urinary KIM-1 corrected for creatinine (KIM-1/CR) ([1]; spot urine, day 77, 3, 10 and 20 mg/kg SER140 subcutaneously once daily vs vehicle, FIG. 2 (means)) | HbA1c ([1]; vehicle vs SER140 treatment) | receptor binding of IL-1p [2] | macrophages liberation / secretion of TNFα [3] |
| --- | --- | --- | --- | --- | --- |
| SER140: dendrimer composed of four monomeric peptides each with the sequence SGRKSSKMQA (SEQ ID NO:1), coupled to a lysine backbone (also: tetrameric dendrimer: four copies coupled to a lysine backbone) | decreased; also recorded: significantly reduced | decreased; also recorded: significantly reduced | no changes | inhibit | reduce |
| SGRKSSKMQA (Variant of fragment of IL1RA) [SEQ ID NO:1, 10-amino acid peptide derived from IL1RA] |  |  |  |  | inhibit |
